Assay results published in the NIST ThermoML archive (doi:10.1016/j.jct.2017.06.001).

Assay: xn = mol fraction of the nth substance listed
Conditions: 100 kPa, Liquid; for speed of sound: Frequency=5 MHz, Pulse-echo method; for mass density: Vibrating tube method

OCCCCCO [1,5-pentanediol] + O
Conditions	mass density [kg/m3]	speed of sound [m/s]
318.15 K, x1 = 0.005	989.65	–
318.15 K, x1 = 0.0101	989.41	–
318.15 K, x1 = 0.0196	989.31	–
318.15 K, x1 = 0.0251	989.53	–
318.15 K, x1 = 0.0304	989.77	–
318.15 K, x1 = 0.05	990.21	–
318.15 K, x1 = 0.0769	990.38	–
318.15 K, x1 = 0.1002	990.62	–
318.15 K, x1 = 0.1438	990.42	–
318.15 K, x1 = 0.1836	–	1646.1
318.15 K, x1 = 0.1845	989.72	–
318.15 K, x1 = 0.1877	–	1645.8
318.15 K, x1 = 0.1923	–	1645.5
318.15 K, x1 = 0.1928	–	1645.4
318.15 K, x1 = 0.1977	–	1645
318.15 K, x1 = 0.2017	–	1644.7
318.15 K, x1 = 0.2025	–	1644.6
318.15 K, x1 = 0.2049	–	1644.4
318.15 K, x1 = 0.2132	–	1643.6
318.15 K, x1 = 0.2224	–	1642.7
318.15 K, x1 = 0.2331	–	1641.6
318.15 K, x1 = 0.2482	–	1640
318.15 K, x1 = 0.2503	988.52	–
318.15 K, x1 = 0.2698	–	1637.7
318.15 K, x1 = 0.2859	–	1635.9
318.15 K, x1 = 0.2955	–	1634.9
318.15 K, x1 = 0.3	987.37	–
318.15 K, x1 = 0.312	–	1633
318.15 K, x1 = 0.3191	–	1632.2
318.15 K, x1 = 0.3343	986.64	–
318.15 K, x1 = 0.3352	–	1630.3
318.15 K, x1 = 0.3499	–	1628.6
318.15 K, x1 = 0.3678	–	1626.5
318.15 K, x1 = 0.3857	–	1624.3
318.15 K, x1 = 0.4054	–	1621.9
318.15 K, x1 = 0.4171	985.02	–
318.15 K, x1 = 0.4216	–	1619.8
318.15 K, x1 = 0.4392	–	1617.6
318.15 K, x1 = 0.4494	–	1616.3
318.15 K, x1 = 0.454	984.19	–
318.15 K, x1 = 0.4703	–	1613.5
318.15 K, x1 = 0.4894	–	1611
318.15 K, x1 = 0.5003	983.3	–
318.15 K, x1 = 0.5038	–	1609.1
318.15 K, x1 = 0.5212	–	1606.7
318.15 K, x1 = 0.5362	982.6	–
318.15 K, x1 = 0.5442	–	1603.6
318.15 K, x1 = 0.565	–	1600.8
318.15 K, x1 = 0.5841	–	1598.3
318.15 K, x1 = 0.6039	–	1595.7
318.15 K, x1 = 0.6177	981.2	–
318.15 K, x1 = 0.6258	–	1592.8
318.15 K, x1 = 0.6425	–	1590.6
318.15 K, x1 = 0.6478	980.7	–
318.15 K, x1 = 0.6602	–	1588.3
318.15 K, x1 = 0.6789	–	1586
318.15 K, x1 = 0.6988	–	1583.5
318.15 K, x1 = 0.7025	979.9	–
318.15 K, x1 = 0.7197	–	1581
318.15 K, x1 = 0.7436	–	1578.2
318.15 K, x1 = 0.7504	979.2	–
318.15 K, x1 = 0.7664	–	1575.6
318.15 K, x1 = 0.7919	–	1572.7
318.15 K, x1 = 0.7927	978.5	–
318.15 K, x1 = 0.8187	–	1569.8
318.15 K, x1 = 0.8416	–	1567.3
318.15 K, x1 = 0.8605	977.4	–
318.15 K, x1 = 0.864	–	1564.8
318.15 K, x1 = 0.8864	–	1562.4
318.15 K, x1 = 0.9004	976.7	–
318.15 K, x1 = 0.9086	–	1560
318.15 K, x1 = 0.926	–	1558
318.15 K, x1 = 0.9413	–	1556.3
318.15 K, x1 = 0.9496	975.8	–
318.15 K, x1 = 0.9573	–	1554.4
318.15 K, x1 = 0.971	–	1552.7
318.15 K, x1 = 0.9808	–	1551.5
318.15 K, x1 = 0.9903	–	1550.3
318.15 K, x1 = 0.9952	–	1549.7
318.15 K, x1 = 1	974.9	1549
323.15 K, x1 = 0.005	987.42	–
323.15 K, x1 = 0.0101	987.12	–
323.15 K, x1 = 0.0196	986.93	–
323.15 K, x1 = 0.0251	987.06	–
323.15 K, x1 = 0.0304	987.26	–
323.15 K, x1 = 0.05	987.48	–
323.15 K, x1 = 0.0769	987.42	–
323.15 K, x1 = 0.1002	987.52	–
323.15 K, x1 = 0.1438	987.17	–
323.15 K, x1 = 0.1845	986.36	–
323.15 K, x1 = 0.2503	985.12	–
323.15 K, x1 = 0.3	983.93	–
323.15 K, x1 = 0.3343	983.17	–
323.15 K, x1 = 0.4171	981.65	–
323.15 K, x1 = 0.454	980.83	–
323.15 K, x1 = 0.5003	980	–
323.15 K, x1 = 0.5362	979.3	–
323.15 K, x1 = 0.6177	978	–
323.15 K, x1 = 0.6478	977.5	–
323.15 K, x1 = 0.7025	976.7	–
323.15 K, x1 = 0.7504	976.1	–
323.15 K, x1 = 0.7927	975.4	–
323.15 K, x1 = 0.8605	974.4	–
323.15 K, x1 = 0.9004	973.7	–
323.15 K, x1 = 0.9496	972.8	–
323.15 K, x1 = 1	971.9	–
328.15 K, x1 = 0.005	985.03	–
328.15 K, x1 = 0.0101	984.7	–
328.15 K, x1 = 0.0196	984.4	–
328.15 K, x1 = 0.0251	984.49	–
328.15 K, x1 = 0.0304	984.6	–
328.15 K, x1 = 0.05	984.62	–
328.15 K, x1 = 0.0769	984.36	–
328.15 K, x1 = 0.1002	984.33	–
328.15 K, x1 = 0.1438	983.84	–
328.15 K, x1 = 0.1845	982.94	–
328.15 K, x1 = 0.2503	981.66	–
328.15 K, x1 = 0.3	980.46	–
328.15 K, x1 = 0.3343	979.7	–
328.15 K, x1 = 0.4171	978.26	–
328.15 K, x1 = 0.454	977.43	–
328.15 K, x1 = 0.5003	976.6	–
328.15 K, x1 = 0.5362	976	–
328.15 K, x1 = 0.6177	974.8	–
328.15 K, x1 = 0.6478	974.3	–
328.15 K, x1 = 0.7025	973.6	–
328.15 K, x1 = 0.7504	972.9	–
328.15 K, x1 = 0.7927	972.3	–
328.15 K, x1 = 0.8605	971.3	–
328.15 K, x1 = 0.9004	970.7	–
328.15 K, x1 = 0.9496	969.9	–
328.15 K, x1 = 1	969	–
333.15 K, x1 = 0.005	982.48	–
333.15 K, x1 = 0.0101	982.09	–
333.15 K, x1 = 0.0196	981.69	–
333.15 K, x1 = 0.0251	981.7	–
333.15 K, x1 = 0.0304	981.74	–
333.15 K, x1 = 0.05	981.63	–
333.15 K, x1 = 0.0769	981.19	–
333.15 K, x1 = 0.1002	981.04	–
333.15 K, x1 = 0.1438	980.43	–
333.15 K, x1 = 0.1845	979.44	–
333.15 K, x1 = 0.2503	978.15	–
333.15 K, x1 = 0.3	976.99	–
333.15 K, x1 = 0.3343	976.21	–
333.15 K, x1 = 0.4171	974.8	–
333.15 K, x1 = 0.454	973.98	–
333.15 K, x1 = 0.5003	973.2	–
333.15 K, x1 = 0.5362	972.6	–
333.15 K, x1 = 0.6177	971.5	–
333.15 K, x1 = 0.6478	971	–
333.15 K, x1 = 0.7025	970.3	–
333.15 K, x1 = 0.7504	969.7	–
333.15 K, x1 = 0.7927	969.1	–
333.15 K, x1 = 0.8605	968.1	–
333.15 K, x1 = 0.9004	967.6	–
333.15 K, x1 = 0.9496	966.7	–
333.15 K, x1 = 1	965.9	–
